Values of other authors in patent US20080213362A1, “COMPOSITIONS AND METHODS USING TORSEMIDE” (priority 2007, published 2008).

Key:
[1] = 2.5 mg once daily
[2] = diabetic or pre-diabetic patient, even during treatment with an anti-diabetic agent

effect on blood sugar levels [2]: worsen blood sugar levels
SMILES: Cc1cccc(Nc2ccncc2S(=O)(=O)NC(=O)NC(C)C)c1 [torsemide]
anti-hypertensive effects [1]: statistically significant anti-hypertensive effects
